From ChEMBL document CHEMBL1135444, “Elucidating the inhibiting mode of AHPBA derivatives against HIV-1 protease and building predictive 3D-QSAR models” (J Med Chem, 2002)

Molecular target: Human immunodeficiency virus type 1 protease (Human immunodeficiency virus 1, UniProt Q72874)
Assay: Inhibitory activity against HIV-1 protease

Row | SMILES | IC50
1 | Cc1ccc(O)c(C)c1C(=O)N[C@@H](Cc1ccccc1)[C@H](O)C(=O)N1C[C@@H](Cl)C[C@H]1C(=O)NC(C)(C)C | 2.5 nM
2 | Cc1c(N)cccc1C(=O)N[C@@H](Cc1ccccc1)[C@H](O)C(=O)N1C[C@@H](Cl)C[C@H]1C(=O)NC(C)(C)C | 5.4 nM
3 | COc1cccc(C(=O)N[C@@H](Cc2ccccc2)[C@H](O)C(=O)N2C[C@@H](Cl)C[C@H]2C(=O)NC(C)(C)C)c1O | 1000 nM
4 | CC(C)(C)NC(=O)[C@@H]1C[C@H](Cl)CN1C(=O)[C@@H](O)[C@H](Cc1ccccc1)NC(=O)c1ccccc1Cl | 11 nM
5 | Cc1ccc(C[C@H](NC(=O)c2ccc(C)c(O)c2C)[C@H](O)C(=O)N2C[C@@H](Cl)C[C@H]2C(=O)NC(C)(C)C)cc1 | 8.6 nM
6 | Cc1cccc(C[C@H](NC(=O)c2ccc(C)c(O)c2C)[C@H](O)C(=O)N2C[C@@H](Cl)C[C@H]2C(=O)NC(C)(C)C)c1 | 2.5 nM
7 | Cc1cccc(C[C@H](NC(=O)c2c(C)ccc(O)c2C)[C@H](O)C(=O)N2C[C@@H](Cl)C[C@H]2C(=O)NC(C)(C)C)c1 | 3.4 nM
8 | Cc1ccc(C(=O)N[C@@H](Cc2ccccc2)[C@H](O)C(=O)N2C[C@@H](Cl)C[C@H]2C(=O)NC(C)(C)C)c(C)c1O | 8.2 nM
9 | Cc1cc(O)c(C)c(C(=O)N[C@@H](Cc2cccc(C(F)(F)F)c2)[C@H](O)C(=O)N2C[C@@H](Cl)C[C@H]2C(=O)NC(C)(C)C)c1 | 1.9 nM
10 | CC(C)(C)NC(=O)[C@@H]1C[C@H](Cl)CN1C(=O)[C@@H](O)[C@H](Cc1ccccc1)NC(=O)c1ccccc1O | 1000 nM
11 | Cc1c(O)cccc1C(=O)N[C@@H](Cc1ccccc1)[C@H](O)C(=O)N1C[C@@H](Cl)C[C@H]1C(=O)NC(C)(C)C | 0.8 nM
12 | Cc1ccc(C(=O)N[C@@H](Cc2ccc3ccccc3c2)[C@H](O)C(=O)N2C[C@@H](Cl)C[C@H]2C(=O)NC(C)(C)C)c(C)c1O | 3.2 nM
13 | CC(C)(C)NC(=O)[C@@H]1C[C@H](Cl)CN1C(=O)[C@@H](O)[C@H](Cc1ccccc1)NC(=O)c1ccccc1 | 26 nM
14 | CC(C)(C)NC(=O)[C@@H]1C[C@H](Cl)CN1C(=O)[C@@H](O)[C@H](Cc1ccccc1)NC(=O)c1ccccc1I | 14 nM
15 | Cc1ccc(C(=O)N[C@@H](Cc2ccc(C(F)(F)F)cc2)[C@H](O)C(=O)N2C[C@@H](Cl)C[C@H]2C(=O)NC(C)(C)C)c(C)c1O | 6.3 nM
16 | Cc1c(O)cc(F)cc1C(=O)N[C@@H](Cc1cccc(C(F)(F)F)c1)[C@H](O)C(=O)N1C[C@@H](Cl)C[C@H]1C(=O)NC(C)(C)C | 2.1 nM
17 | CC(C)(C)NC(=O)[C@@H]1C[C@H](Cl)CN1C(=O)[C@@H](O)[C@H](Cc1ccccc1)NC(=O)c1cccc(O)c1Br | 1.5 nM
18 | Cc1ccc(C(=O)N[C@@H](Cc2cccc(C(F)(F)F)c2)[C@H](O)C(=O)N2C[C@@H](Cl)C[C@H]2C(=O)NC(C)(C)C)c(C)c1O | 3.5 nM

Row | SMILES | IC50
19 | Cc1ccc(O)c(C)c1C(=O)N[C@@H](Cc1cccc(C(F)(F)F)c1)[C@H](O)C(=O)N1C[C@@H](Cl)C[C@H]1C(=O)NC(C)(C)C | 4.6 nM
20 | Cc1ccc(C[C@H](NC(=O)c2c(C)ccc(O)c2C)[C@H](O)C(=O)N2C[C@@H](Cl)C[C@H]2C(=O)NC(C)(C)C)cc1 | 3.6 nM
21 | Cc1cc(O)c(C)c(C(=O)N[C@@H](Cc2ccc(-c3ccccc3)cc2)[C@H](O)C(=O)N2C[C@@H](Cl)C[C@H]2C(=O)NC(C)(C)C)c1 | 1.3 nM
22 | CC(C)(C)NC(=O)[C@@H]1C[C@H](Cl)CN1C(=O)[C@@H](O)[C@H](Cc1ccccc1)NC(=O)c1ccccc1N | 39 nM
23 | Cc1ccc(O)c(C)c1C(=O)N[C@@H](Cc1ccc(C(F)(F)F)cc1)[C@H](O)C(=O)N1C[C@@H](Cl)C[C@H]1C(=O)NC(C)(C)C | 3.9 nM
24 | Cc1ccccc1C[C@H](NC(=O)c1c(C)ccc(O)c1C)[C@H](O)C(=O)N1C[C@@H](Cl)C[C@H]1C(=O)NC(C)(C)C | 34.3 nM
25 | Cc1ccccc1C[C@H](NC(=O)c1ccc(C)c(O)c1C)[C@H](O)C(=O)N1C[C@@H](Cl)C[C@H]1C(=O)NC(C)(C)C | 49.9 nM
26 | Cc1cccc(C[C@H](NC(=O)c2cc(C)cc(O)c2C)[C@H](O)C(=O)N2C[C@@H](Cl)C[C@H]2C(=O)NC(C)(C)C)c1 | 1.3 nM
27 | Cc1ccc(O)c(C)c1C(=O)N[C@@H](Cc1ccc2ccccc2c1)[C@H](O)C(=O)N1C[C@@H](Cl)C[C@H]1C(=O)NC(C)(C)C | 2.8 nM
28 | Cc1cccc(C)c1C(=O)N[C@@H](Cc1ccccc1)[C@H](O)C(=O)N1C[C@@H](Cl)C[C@H]1C(=O)NC(C)(C)C | 3.6 nM
29 | Cc1cc(O)c(C)c(C(=O)N[C@@H](Cc2ccccc2)[C@H](O)C(=O)N2C[C@@H](Cl)C[C@H]2C(=O)NC(C)(C)C)c1 | 1.3 nM
30 | CC(C)(C)NC(=O)[C@@H]1C[C@H](Cl)CN1C(=O)[C@@H](O)[C@H](Cc1ccccc1)NC(=O)c1ccc(O)cc1 | 33 nM
31 | CC(C)(C)NC(=O)[C@@H]1C[C@H](Cl)CN1C(=O)[C@@H](O)[C@H](Cc1ccccc1)NC(=O)c1ccccc1Br | 12 nM
32 | Cc1c(O)cc(F)cc1C(=O)N[C@@H](Cc1ccccc1)[C@H](O)C(=O)N1C[C@@H](Cl)C[C@H]1C(=O)NC(C)(C)C | 1.7 nM
33 | CC(C)(C)NC(=O)[C@@H]1C[C@H](Cl)CN1C(=O)[C@@H](O)[C@H](Cc1ccccc1)NC(=O)c1cccc(O)c1 | 9 nM
34 | Cc1c(O)cc(F)cc1C(=O)N[C@@H](Cc1ccc2ccccc2c1)[C@H](O)C(=O)N1C[C@@H](Cl)C[C@H]1C(=O)NC(C)(C)C | 1.2 nM
35 | Cc1cc(O)c(C)c(C(=O)N[C@@H](Cc2ccc3ccccc3c2)[C@H](O)C(=O)N2C[C@@H](Cl)C[C@H]2C(=O)NC(C)(C)C)c1 | 0.8 nM
36 | Cc1cc(O)c(C)c(C(=O)N[C@@H](Cc2cc(F)cc(F)c2)[C@H](O)C(=O)N2C[C@@H](Cl)C[C@H]2C(=O)NC(C)(C)C)c1 | 1.2 nM
